Reference: ChEMBL document CHEMBL1201862, “PubChem BioAssay data set” (2004)
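Cultured in 96-well plates, cells were exposed to test compound for 48 hours across five concentrations. GI50 = concentration required for 50% inhibition of growth.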 The source made the active and inactive calls. No stated cut-off is given here; in the data, active = GI50 up to about 1.1 µM and inactive = higher.

Key:
Assay in all cases: NCI anticancer screen, dose series, 48 h
A498 = test system: A498
CAKI-1 = test system: CAKI-1
CCRF-CEM = test system: CCRF-CEM
HCC 2998 = test system: HCC 2998
HOP-62 = test system: HOP-62
M14 = test system: M14
NCI-H226 = test system: NCI-H226
NCI-H23 = test system: NCI-H23
NCI-H460 = test system: NCI-H460
OVCAR-8 = test system: OVCAR-8
SF-268 = test system: SF-268
SF-295 = test system: SF-295
SF-539 = test system: SF-539
SK-MEL-28 = test system: SK-MEL-28
SNB-78 = test system: SNB-78
SR = test system: SR
SW-620 = test system: SW-620
TK-10 = test system: TK-10

Measured: GI50

Cc1ccc(C)c(NC(=O)CC/C(=N\NC(=O)c2c(O)ccc3ccccc23)C(C)C(=O)c2ccc(O)cc2)c1 (stereo unspecified)
inactive: A498 60.8 µM | CAKI-1 65.2 µM | CCRF-CEM 15.2 µM | HCC 2998 44.6 µM | HOP-62 49.5 µM | M14 16.9 µM | NCI-H226 37.1 µM | NCI-H23 31.1 µM | NCI-H460 21.7 µM | OVCAR-8 26.1 µM | SF-268 17.9 µM | SF-295 37.2 µM | SF-539 30.7 µM | SK-MEL-28 49 µM | SNB-78 36.2 µM | SR 27.8 µM | SW-620 41.3 µM | TK-10 > 100 µM

O=C(O)/C=C/C(=O)N1C/C(=C\c2ccccc2)C(=O)/C(=C/c2ccccc2)C1
inactive: A498 20.1 µM | CAKI-1 15.1 µM | CCRF-CEM 2.36 µM | HCC 2998 6.67 µM | HOP-62 23.4 µM | M14 3.4 µM | NCI-H226 12.4 µM | NCI-H23 9.71 µM | NCI-H460 14.1 µM | OVCAR-8 2.7 µM | SF-268 6.35 µM | SF-295 5.01 µM | SF-539 10.8 µM | SK-MEL-28 6.49 µM | SNB-78 5.9 µM | SR 3.72 µM | SW-620 2.32 µM | TK-10 10.3 µM
